Assay results: BindingDB's records for doi:10.1111/j.1747-0285.2012.01443.x (Pfizer, 2012)

Biological target: Tyrosine-protein kinase SYK (Homo sapiens, UniProt P43405)
Test: Syk Enzyme Assay
Settings: pH 7.4; 25 °C
Text: A Lance TR-FRET assay (Perkin Elmer) was used to measure and compare the potency of compounds against Syk kinase domain.

- IC50: 320 nM
SMILES: COc1cc2nccc(Oc3ccc(NC(=O)N[C@@H]4C[C@H]4c4ccccc4)nc3)c2cc1OC [Dimethoxyquinoline, 1]
